SMILES strings stand for the structures. The source made the active and inactive calls. The rule behind the calls is not given here.

Assay [1] deals with K562/Adr. As to the kind of experiment: Induction of ROS generation in human K562/ADR cells at 0.1 uM measured after 24 hrs by DCFH-DA probe based inverted fluorescence microscopy. The class given is functional, cell-based.
Assay [2] is described as follows: Downregulation of CyclinA expression in human K562/ADR cells assessed as ratio of CyclinA to beta-actin level at 0.1 uM pretreated with MAPK inhibitor U0126 for 1 hr followed by compound addition measured after 48 hrs by Western blot analysis (reference value: 0.64). The format is functional, cell-based. (In general: A western blot detects proteins with antibodies after separation by electrophoresis.)

Assay [3] can be described thus: Downregulation of CyclinB1 expression in human K562/ADR cells assessed as ratio of CyclinB1 to beta-actin level at 0.1 uM measured after 48 hrs by Western blot analysis (reference value: 0.77). The format is functional, cell-based.
Assay [4] has as its system K562/Adr. In words: Induction of apoptosis in human K562/ADR cells assessed as necrotic cells at 0.1 uM pretreated with MAPK inhibitor SP600125 for 1 hr followed by compound addition after 48 hrs by Annexin V-APC/7-AAD staining based flow cytometry (reference value: 0.26%). On the set-up: scale not given: the % may be the effect or the level left. The class given is functional. Background: In flow cytometry, cells or beads pass a laser one at a time.

Assay [5] concerns K562/Adr. In words: Induction of apoptosis in human K562/ADR cells assessed as ratio of cleaved caspase-9 to beta-actin level at 0.1 uM pretreated with ROS scavenger NAC for 2 hrs followed by compound addition measured after 48 hrs by Western blot analysis (reference value: 0.05). The class given is functional.
Assay [6] has as its system K562/Adr. In words: Induction of apoptosis in human K562/ADR cells assessed as early apoptotic cells at 0.1 uM after 48 hrs by Annexin V-APC/7-AAD staining based flow cytometry (reference value: 2.74%). The class given is functional.
Assay [7] has as its target c-Jun N-terminal kinase, JNK (Homo sapiens) (UniProt P45983+P53779+P45984). As to the kind of experiment: Induction of JNK phosphorylation in human K562/ADR cells assessed as ratio of phosphorylated JNK to beta-actin level at 0.1 uM pretreated with MAPK inhibitor SB203580 for 1 hr followed by compound addition after 48 hrs by Western blotting method (reference value: 0.46). The class given is cell-based.

The target in assay [8] is MAP kinase p38 (Homo sapiens) (UniProt O15264+Q15759+Q16539+P53778). In words: Induction of P38 phosphorylation in human K562/ADR cells assessed as ratio of phosphorylated p38 to beta-actin level at 0.1 uM pretreated with MAPK inhibitor SP600125 for 1 hr followed by compound addition after 48 hrs by Western blotting method (reference value: 0.25). The format is cell-based.

Assay [9] is described as follows: Downregulation of CDK2 expression in human K562/ADR cells assessed as ratio of CDK2 to beta-actin level at 0.1 uM measured after 48 hrs by Western blot analysis (reference value: 0.65). The class given is functional, cell-based.
A short description of assay [10]: Downregulation of CyclinA expression in human K562/ADR cells assessed as ratio of CyclinA to beta-actin level at 0.1 uM measured after 48 hrs by Western blot analysis (reference value: 0.64). The class given is functional, cell-based.
The test system of assay [11] is K562/Adr. As to the kind of experiment: Induction of apoptosis in human K562/ADR cells assessed as viable cells at 0.1 uM after 48 hrs by Annexin V-APC/7-AAD staining based flow cytometry (reference value: 95.31%). The class given is functional. The note with it: read-out: Activity.
Assay [12] concerns K562/Adr. As to the kind of experiment: Induction of apoptosis in human K562/ADR cells assessed as ratio of cleaved caspase-8 to beta-actin level at 0.1 uM pretreated with MAPK inhibitor SP600125 for 1 hr followed by compound addition measured after 48 hrs by Western blot analysis (reference value: 0.07). The format is functional.
Assay [13] has as its system K562/Adr. In words: Induction of apoptosis in human K562/ADR cells assessed as ratio of cleaved caspase-9 to beta-actin level at 0.1 uM pretreated with MAPK inhibitor SP600125 for 1 hr followed by compound addition measured after 48 hrs by Western blot analysis (reference value: 0.05). The class given is functional.
The subject of assay [14] is K562/Adr. In words: Induction of apoptosis in human K562/ADR cells assessed as ratio of cleaved caspase-3 to beta-actin level at 0.1 uM pretreated with ROS scavenger NAC for 2 hrs followed by compound addition measured after 48 hrs by Western blot analysis (reference value: 0.06). The class given is functional.
Assay [15] concerns K562/Adr. In words: Induction of apoptosis in human K562/ADR cells assessed as chromatin condensation at 0.1 uM measured after 24 hrs by Hoechst33342 staining-based inverted fluorescent microscopic analysis. The format is functional, cell-based.

`COc1cc([C@@H]2c3cc4c(cc3[C@H](OC(=O)c3ccco3)[C@H]3COC(=O)[C@H]23)OCO4)cc(OC)c1OC`: the outcome in the assay with K562/Adr [1] and in the assay on K562/Adr [15] was Active. Further, the Ratio in assay [2] came to 0.41; in assay [3] it was 0.19; with K562/Adr [5], 0.1; in [7], 0.3; in assay [8], 0.19; in assay [9], 0.14. The Ratio in assay [10] turned out to be 0.15; in the assay on K562/Adr [12], 0.47; in the assay on K562/Adr [13] it was 0.47; in the assay with K562/Adr [14], 0.2. Besides, the Activity in the assay on K562/Adr [4] was determined as 3.42%; in the assay with K562/Adr [6], 7.92%. Also, the viability at 0.1 µM with K562/Adr [11] amounted to 46.1%.

The record behind these values is ChEMBL document CHEMBL3872207, “Aromatic heterocyclic esters of podophyllotoxin exert anti-MDR activity in human leukemia K562/ADR cells via ROS/MAPK signaling pathways” (Eur J Med Chem, 2016).
